Measurements: patent US12679843B2, “Pyrrolopyrimidine amines as complement inhibitors” (BioCryst Pharmaceuticals, Inc., priority 2020, dated 2026)

These molecules were tested against Factor D (Homo sapiens, UniProt P00746) (assay: Factor D esterolytic assay (Z-Lys-SBzl thioester substrate, DTNB, 405 nm)). Conditions: substrate Z-Lys-SBzl 1.29 mM, 100 mM HEPES, 500 mM NaCl, pH 7.5, 10% DMSO, tested a minimum of three times.
Factor D, sequence (P00746 26-253): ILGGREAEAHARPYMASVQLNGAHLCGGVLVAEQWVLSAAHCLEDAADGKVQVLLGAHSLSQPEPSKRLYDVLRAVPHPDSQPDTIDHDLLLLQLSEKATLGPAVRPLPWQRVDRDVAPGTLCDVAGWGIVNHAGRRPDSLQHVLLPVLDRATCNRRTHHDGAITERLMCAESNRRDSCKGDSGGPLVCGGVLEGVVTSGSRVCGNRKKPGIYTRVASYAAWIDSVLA
Format: biochemical
Procedure, shortened: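 Human Factor D hydrolysis of Z-Lys-SBzl (1.29 mM) monitored at 405 nm via DTNB thiol detection for 600 s, 690 nm background subtracted. Buffer 100 mM HEPES, 500 mM NaCl, pH 7.5, 10% DMSO; substrate added immediately or after room-temperature preincubation. IC50 from percent inhibition of rate, at least three tests.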
In the case of `Cc1cc(-c2ccco2)cc2c3c(N)ncnc3n(CC(=O)N3[C@@H]4C[C@@H]4C[C@H]3C(=O)Nc3cccc(Br)n3)c12` [Compound 370a, (1R,3S,5R)-2-(2-(4-amino-6-(furan-2-yl)-8-methyl-9H-pyrimido[4,5-b]indol-9-yl)acetyl)-N-(6-bromopyridin-2-yl)-2-azabicyclo[3.1.0]hexane-3-carboxamide], the IC50 is reported as < 100 nM. Molecule `Nc1ncnc2c1c1nc(-c3cccnc3)ccc1n2CC(=O)N1[C@@H]2C[C@@H]2C[C@H]1C(=O)Nc1cccc(Br)n1` [Compound 371c, (1R,3S,5R)-2-(2-(4-amino-6-(pyridin-3-yl)-9H-pyrido[2′,3′:4,5]pyrrolo[2,3-d]pyrimidin-9-yl)acetyl)-N-(6-bromopyridin-2-yl)-2-azabicyclo[3.1.0]hexane-3-carboxamide] has an IC50 of 100 to 1000 nM. Work on `C[C@@]12C[C@@H](C(=O)Nc3cccc(Br)n3)N(C(=O)Cn3c4ccc(-c5cccnc5)nc4c4c(N)ncnc43)[C@@H]1C2` [Compound 372a, (1R,3S,5R)-2-(2-(4-amino-6-(pyridin-3-yl)-9H-pyrido[2′,3′:4,5]pyrrolo[2,3-d]pyrimidin-9-yl)acetyl)-N-(6-bromopyridin-2-yl)-5-methyl-2-azabicyclo[3.1.0]hexane-3-carboxamide] yielded an IC50 of 100 to 1000 nM. Work on `C[C@@]12C[C@@H](C(=O)Nc3cccc(Br)n3)N(C(=O)Cn3c4ccc(-c5ccncc5)nc4c4c(N)ncnc43)[C@@H]1C2` [Compound 373a, (1R,3S,5R)-2-(2-(4-amino-6-(pyridin-4-yl)-9H-pyrido[2′,3′:4,5]pyrrolo[2,3-d]pyrimidin-9-yl)acetyl)-N-(6-bromopyridin-2-yl)-5-methyl-2-azabicyclo[3.1.0]hexane-3-carboxamide] yielded an IC50 of 100 to 1000 nM. `COc1cc2c(cc1Br)c1c(N)ncnc1n2CC(=O)N1[C@@H]2C[C@@H]2C[C@H]1C(=O)Nc1cccc(Br)n1` [Compound 374g, (1R,3S,5R)-2-(2-(4-amino-6-bromo-7-methoxy-9H-pyrimido[4,5-b]indol-9-yl)acetyl)-N-(6-bromopyridin-2-yl)-2-azabicyclo[3.1.0]hexane-3-carboxamide] was tested, and the IC50 was < 100 nM. In the case of `COc1cc2c(cc1Br)c1c(N)ncnc1n2CC(=O)N1[C@H](C(=O)Nc2cccc(Br)n2)C[C@@]2(C)C[C@@H]12` [Compound 375a, (1R,3S,5R)-2-(2-(4-amino-6-bromo-7-methoxy-9H-pyrimido[4,5-b]indol-9-yl)acetyl)-N-(6-bromopyridin-2-yl)-5-methyl-2-azabicyclo[3.1.0]hexane-3-carboxamide], the IC50 is reported as < 100 nM. In the case of `Nc1ncnc2c1c1cc(Br)cc(F)c1n2CC(=O)N1[C@@H]2C[C@@H]2C[C@H]1C(=O)Nc1cccc(Br)n1` [Compound 376g, (1R,3S,5R)-2-(2-(4-amino-6-bromo-8-fluoro-9H-pyrimido[4,5-b]indol-9-yl)acetyl)-N-(6-bromopyridin-2-yl)-2-azabicyclo[3.1.0]hexane-3-carboxamide], the IC50 is reported as < 100 nM. In the case of `C[C@@]12C[C@@H](C(=O)Nc3cccc(Br)n3)N(C(=O)Cn3c4ncnc(N)c4c4cc(Br)cc(F)c43)[C@@H]1C2` [Compound 377a, (1R,3S,5R)-2-(2-(4-amino-6-bromo-8-fluoro-9H-pyrimido[4,5-b]indol-9-yl)acetyl)-N-(6-bromopyridin-2-yl)-5-methyl-2-azabicyclo[3.1.0]hexane-3-carboxamide], the IC50 is reported as < 100 nM. With `Cc1cc(-c2ccccn2)cc2c3c(N)ncnc3n(CC(=O)N3[C@H](C(=O)Nc4cccc(Br)n4)C[C@@]4(C)C[C@@H]34)c12` [Compound 378c, (1R,3S,5R)-2-(2-(4-amino-8-methyl-6-(pyridin-2-yl)-9H-pyrimido[4,5-b]indol-9-yl)acetyl)-N-(6-bromopyridin-2-yl)-5-methyl-2-azabicyclo[3.1.0]hexane-3-carboxamide] the IC50 was < 100 nM. For `Cc1cc2c(cc1Br)c1c(N)ncnc1n2CC(=O)N1[C@@H]2C[C@@H]2C[C@H]1C(=O)Nc1cccc(Br)n1` [Compound 379h, (1R,3S,5R)-2-(2-(4-amino-6-bromo-7-methyl-9H-pyrimido[4,5-b]indol-9-yl)acetyl)-N-(6-bromopyridin-2-yl)-2-azabicyclo[3.1.0]hexane-3-carboxamide], the IC50 was < 100 nM. In the case of `Cc1cc2c(cc1Br)c1c(N)ncnc1n2CC(=O)N1[C@H](C(=O)Nc2cccc(Br)n2)C[C@@]2(C)C[C@@H]12` [Compound 380a, (1R,3S,5R)-2-(2-(4-amino-6-bromo-7-methyl-9H-pyrimido[4,5-b]indol-9-yl)acetyl)-N-(6-bromopyridin-2-yl)-5-methyl-2-azabicyclo[3.1.0]hexane-3-carboxamide], the IC50 is reported as < 100 nM. With `Cc1cc2c(cc1F)c1c(N)ncnc1n2CC(=O)N1[C@@H]2C[C@@H]2C[C@H]1C(=O)Nc1cccc(Br)n1` [Compound 381g, (1R,3S,5R)-2-(2-(4-amino-6-fluoro-7-methyl-9H-pyrimido[4,5-b]indol-9-yl)acetyl)-N-(6-bromopyridin-2-yl)-2-azabicyclo[3.1.0]hexane-3-carboxamide] the IC50 was < 100 nM. For `Cc1cc2c(cc1F)c1c(N)ncnc1n2CC(=O)N1[C@H](C(=O)Nc2cccc(Br)n2)C[C@@]2(C)C[C@@H]12` [Compound 382a, (1R,3S,5R)-2-(2-(4-amino-6-fluoro-7-methyl-9H-pyrimido[4,5-b]indol-9-yl)acetyl)-N-(6-bromopyridin-2-yl)-5-methyl-2-azabicyclo[3.1.0]hexane-3-carboxamide], the IC50 was < 100 nM. For `COc1cc2c(cc1F)c1c(N)ncnc1n2CC(=O)N1[C@@H]2C[C@@H]2C[C@H]1C(=O)Nc1cccc(Br)n1` [Compound 383g, (1R,3S,5R)-2-(2-(4-amino-6-fluoro-7-methoxy-9H-pyrimido[4,5-b]indol-9-yl)acetyl)-N-(6-bromopyridin-2-yl)-2-azabicyclo[3.1.0]hexane-3-carboxamide], the IC50 was < 100 nM. In the case of `Cc1cc2c3c(N)ncnc3n(CC(=O)N3[C@@H]4C[C@@H]4C[C@H]3C(=O)Nc3cccc(Br)n3)c2cc1F` [Compound 384g, (1R,3S,5R)-2-(2-(4-amino-7-fluoro-6-methyl-9H-pyrimido[4,5-b]indol-9-yl)acetyl)-N-(6-bromopyridin-2-yl)-2-azabicyclo[3.1.0]hexane-3-carboxamide], the IC50 is reported as < 100 nM. With `Cc1cc2c3c(N)ncnc3n(CC(=O)N3[C@H](C(=O)Nc4cccc(Br)n4)C[C@@]4(C)C[C@@H]34)c2cc1F` [Compound 385a, (1R,3S,5R)-2-(2-(4-amino-7-fluoro-6-methyl-9H-pyrimido[4,5-b]indol-9-yl)acetyl)-N-(6-bromopyridin-2-yl)-5-methyl-2-azabicyclo[3.1.0]hexane-3-carboxamide] the IC50 was < 100 nM. `Nc1ncnc2c1c1cc(F)c(F)cc1n2CC(=O)N1[C@@H]2C[C@@H]2C[C@H]1C(=O)Nc1cccc(Br)n1` [Compound 386g, (1R,3S,5R)-2-(2-(4-amino-6,7-difluoro-9H-pyrimido[4,5-b]indol-9-yl)acetyl)-N-(6-bromopyridin-2-yl)-2-azabicyclo[3.1.0]hexane-3-carboxamide] was tested, and the IC50 was < 100 nM. In the case of `C[C@@]12C[C@@H](C(=O)Nc3cccc(Br)n3)N(C(=O)Cn3c4cc(F)c(F)cc4c4c(N)ncnc43)[C@@H]1C2` [Compound 387a, (1R,3S,5R)-2-(2-(4-amino-6,7-difluoro-9H-pyrimido[4,5-b]indol-9-yl)acetyl)-N-(6-bromopyridin-2-yl)-5-methyl-2-azabicyclo[3.1.0]hexane-3-carboxamide], the IC50 is reported as < 100 nM.
